Reference: patent US20250263424A1, “KRAS INHIBITORS” (Bristol-Myers Squibb Company, priority 2022, published 2025)

What follows are compounds tested against Recombinant GMPPNP-loaded KRAS G12C (KRAS-G12C(ON), active form) (Homo sapiens, UniProt P01116, G12C) (assay: KRAS G12C RAF Disruption Assay (HTRF)). Conditions: GMPPNP-loaded KRAS G12C 5 nM, GST-RAF1 RBD 9 nM, values given in μM, read-out: KRASG12C RAF Disruption Assay (IC50).
Format: biochemical
Method in brief: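 GMPPNP-loaded KRAS G12C (5 nM) preincubated with compound 20 min at room temperature in Tris pH 7.5 buffer with MgCl2, DTT and BSA. GST-RAF1 RBD (9 nM) then added for 20 min, and SA-Tb (0.25 nM) for 3 h. HTRF 520/495 ratio read; IC50 taken from the dose-response curve.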

Row | Compound | IC50 [µM]
1 | Cc1cc(N)nc(-c2c(Cl)cc3c(N4C[C@H]5CC[C@@H]4[C@@H]5NC(=O)/C(F)=C/c4nccs4)nc(OC[C@@H]4CCCN4C)nc3c2F)c1C(F)(F)F (atropisomer, axis not shown; (M)) [Example 49, (2Z)-N-[(1R,4R,7R)-2-[(7M)-7-[6-amino-4-methyl-3-(trifluoromethyl)pyridin-2-yl]-6-chloro-8-fluoro-2-{[(2S)-1-methylpyrrolidin-2-yl]methoxy}quinazolin-4-yl]-2-azabicyclo[2.2.1]heptan-7-yl]-2-fluoro-3-(1,3-thiazol-2-yl)prop-2-enamide] | 2.26
2 | (Z)-1-(3-((7M)-7-(6-amino-4-methyl-3-(trifluoromethyl)pyridin-2-yl)-6-chloro-8-fluoro-2-(((2R,7aR)-2-fluorotetrahydro-1H-pyrrolizin-7a(5H)-yl)methoxy)quinazolin-4-yl)-3,9-diazabicyclo[3.3.1]nonan-9-yl)-2-fluoro-3-(thiazol-2-yl)prop-2-en-1-one [Example 14] | 2.1
3 | C#Cc1c(F)ccc2cc(O)cc(-c3ccc4c(N5C[C@H]6CC[C@@H](C5)N6C(=O)/C(F)=C/c5ncccn5)nc(OC[C@@H]5CCCN5C)nc4c3F)c12 [Example 30, (Z)-1-((1R,5S)-3-(7-(8-ethynyl-7-fluoro-3-hydroxynaphthalen-1-yl)-8-fluoro-2-(((S)-1-methylpyrrolidin-2-yl)methoxy)quinazolin-4-yl)-3,8-diazabicyclo[3.2.1]octan-8-yl)-2-fluoro-3-(pyrimidin-2-yl)prop-2-en-1-one] | 21.3

Same assay, conditions: GMPPNP-loaded KRAS G12C 5 nM, GST-RAF1 RBD 9 nM, values in nM, read-out: KRASG12C RAF Disruption Assay (IC50)

Row | Compound | IC50 [µM]
4 | C#Cc1c(F)ccc2cc(O)cc(-c3ccc4c(N5C[C@H]6CC[C@@H](C5)N6C(=O)/C(F)=C/c5ccccn5)nc(OC[C@@H]5CCCN5C)nc4c3F)c12 [Example 22, (Z)-1-((1R,5S)-3-(7-(8-ethynyl-7-fluoro-3-hydroxynaphthalen-1-yl)-8-fluoro-2-(((S)-1-methylpyrrolidin-2-yl)methoxy)quinazolin-4-yl)-3,8-diazabicyclo[3.2.1]octan-8-yl)-2-fluoro-3-(pyridin-2-yl)prop-2-en-1-one] | 0.26
5 | C#Cc1c(F)ccc2cc(O)cc(-c3ccc4c(N5CCN(C(=O)/C(F)=C/c6nccs6)CC5)nc(OC[C@@]56CCCN5C[C@H](F)C6)nc4c3F)c12 [Example 72, (Z)-1-(4-(7-(8-ethynyl-7-fluoro-3-hydroxynaphthalen-1-yl)-8-fluoro-2-(((2R,7aS)-2-fluorotetrahydro-1H-pyrrolizin-7a(5H)-yl)methoxy)quinazolin-4-yl)piperazin-1-yl)-2-fluoro-3-(thiazol-2-yl)prop-2-en-1-one] | 0.002
6 | N#CC[C@H]1CN(c2nc(OC[C@@]34CCCN3C[C@H](F)C4)nc3c(F)c(-c4cc(O)cc5ccccc45)ccc23)CCN1C(=O)/C(F)=C/c1ccccn1 [Example 39, 2-((S)-4-(8-fluoro-2-(((2R,7aS)-2-fluorotetrahydro-1H-pyrrolizin-7a(5H)-yl)methoxy)-7-(3-hydroxynaphthalen-1-yl)quinazolin-4-yl)-1-((Z)-2-fluoro-3-(pyridin-2-yl)acryloyl)piperazin-2-yl)acetonitrile] | 0.023
7 | C#Cc1cccc2cccc(-c3ccc4c(N(C)[C@@H]5CCN(C(=O)/C(F)=C/c6nccs6)C5)nc(OC[C@@]56CCCN5C[C@H](F)C6)nc4c3F)c12 [Example 82, (Z)-1-((R)-3-((7-(8-ethynylnaphthalen-1-yl)-8-fluoro-2-(((2R,7aS)-2-fluorotetrahydro-1H-pyrrolizin-7a(5H)-yl)methoxy)quinazolin-4-yl)(methyl)amino)pyrrolidin-1-yl)-2-fluoro-3-(thiazol-2-yl)prop-2-en-1-one] | 0.04
8 | CN1CCC[C@H]1COc1nc(N2CCN(C(=O)/C(F)=C/c3nccs3)CC2)c2ccc(-c3cc(O)cc4ccccc34)c(F)c2n1 [Example 29, (S,Z)-2-fluoro-1-(4-(8-fluoro-7-(3-hydroxynaphthalen-1-yl)-2-((1-methylpyrrolidin-2-yl)methoxy)quinazolin-4-yl)piperazin-1-yl)-3-(thiazol-2-yl)prop-2-en-1-one] | 0.18
